Reference: paper PMC4769951 (Bioorganic & medicinal chemistry, 2016)

Experiments:
[1] = Aqueous stability in simulated gastric fluid; format: physicochemical; conditions: 37 °C
[2] = Plasma stability, mouse plasma; format: in vitro ADME; conditions: female, CD-1, mouse, pooled plasma
[3] = Plasma stability, rat plasma; format: in vitro ADME; conditions: female, Sprague-Dawley, pooled plasma
[4] = Plasma stability, human plasma; format: in vitro ADME; conditions: female, pooled plasma
Caco-2 cells = conditions: cited from earlier work
[5] = in vivo, cited from earlier work

For `CCCCCCCCCCCC(=O)O[C@H]1[C@@H](F)[C@H](n2cnc3c(N)ncnc32)O[C@@H]1CNS(=O)(=O)NC(=O)c1ccccc1O.CCN(CC)CC` [Compound 8, 9-[2,5-Dideoxy-3-O-(dodecanoyl)-2-fluoro-5-{N-(N-2-hydroxybenzoyl)sulfamoyl}amino-β-D-ribofuranosyl]adenine Triethylammonium Salt], the “Chemical hydrolysis to release the parent drug 2” value ([1]; pH 1.2, 2 h) was “not observed”.

With `Nc1ncnc2c1ncn2[C@@H]1O[C@H](CNS(=O)(=O)NC(=O)c2ccccc2O)[C@@H](O)[C@H]1F` [Compound 2] the remaining at 6 h, 200 µM [2] was 100%, the remaining at 6 h, 200 µM [3] was 100% and the remaining at 6 h, 200 µM [4] was 100%. For the same molecule, the “Caco-2 permeability relative to 1” value (Caco-2 cells) was 3.5 fold, the Efflux ratio (Caco-2 cells) was 0.3 and the “Papp AP-BL” value (Caco-2 cells) was 4.2 ×10⁻⁶ cm/s. For the same molecule, the “Papp BL-AP” value (Caco-2 cells) was 1.3 ×10⁻⁶ cm/s, the “Oral exposure relative to 1” value ([5]; po) was 3 fold and the “Clearance relative to 1” value [5] was 3 fold.

In the case of `CC(=O)O[C@H]1[C@@H](F)[C@H](n2cnc3c(N)ncnc32)O[C@@H]1CNS(=O)(=O)NC(=O)c1ccccc1O.CCN(CC)CC` [Compound 3, 9-[3-O-(Acetyl)-2,5-dideoxy-2-fluoro-5-{N-(N-2-hydroxybenzoyl)sulfamoyl}amino-β-D-ribofuranosyl]adenine Triethylammonium Salt], the “% hydrolyzed to parent drug 2” value ([1]; pH 7.4, 2 h) is reported as 8%.
